The record followed here is US20060069132A1, “Azolecarboxamide herbicides” (priority 2004, published 2006).

One assay relates to johnsongrass. The experiment in a line: Test E pre-/postemergence herbicide test. It is filed as in vivo, Sorghum halepense. The source says:
(§1) Seeds of plant species selected from bipinnate beggarticks (Bidens bipinnata L.), hairy beggarticks (Bidens radiata Thuill.), bermudagrass (Cynodon dactylon (L.) Pers.), Surinam grass (Urochloa decumbens (Staph) R. D. Webster, previously named Brachiaria decumbens Stapf), large crabgrass (Digitaria sanguinalis (L.) Scop.), green foxtail (Setaria viridis (L.) P. Beauv.), goosegrass (Eleusine indica (L.) Gaertn.), johnsongrass (Sorghum halepense (L.) Pers.), kochia (Kochia scoparia (L.) Schrad.), pitted morningglory (Ipomoea lacunosa L.), purple nutsedge (Cyperus rotundus L.), common ragweed (Ambrosia elatior L.), mustard (Brassica nigra (L.) W. D. J. Koch), guineagrass (Panicum maximum Jacq.), dallisgrass (Paspalum dilatatum Poir.), barnyardgrass (Echinochloa crus-galli (L). P. Beauv.), southern sandbur (Cenchrus echinatus L.), common sowthistle (Sonchus oleraceous L.), prickly sida (Sida spinosa L.), Italian ryegrass (Lolium multiflorum Lam.), common purslane (Portulaca oleracea L.), broadleaf signalgrass (Brachiaria platyphylla (Griseb.) Nash), common groundsel (Senecio vulgaris L.), common chickweed (Stellaria media (L.) Vill/Cyr.), tropical spiderwort (Commelina benghalensis L.), annual bluegrass (Poa annua L.), downy bromegrass (Bromus tectorum L.), itchgrass (Rottboellia cochinchinensis (L.) L.f.), quackgrass (Elytrigia repens (L.) Nevski), Canada horseweed (Erigeron Canadensis L.), field bindweed (Convolvulus arvensis L.), spotted spurge (Euphorbia maculata L.), common mallow (Malva sylvestris (=s silvestris) L.), and Russian thistle (Salsola kali L. ssp. Ruthenica (Iljin) Soo) were planted and treated preemergence with test chemicals formulated in a non-phytotoxic solvent mixture which included a surfactant.
(§2) At the same time, plants selected from these weed species were treated with postemergence applications of some of the test chemicals formulated in the same manner. Plants ranged in height from 2 to 18 cm (1- to 4-leaf stage) for postemergence treatments. Treated plants and controls were maintained in a greenhouse for 12 to 14 days, after which time all species were compared to controls and visually evaluated. Plant response ratings, summarized in Table E, are based on a scale of 0 to 100 where 0 is no effect and 100 is complete control. A dash (-) response means no test result.

A further assay has as its system kochia. Description: Test C pre-/postemergence herbicide test. The settings on record: for Kochia plant response rating: Preemergence. It is filed as in vivo, Kochia scoparia. Summed up:
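Emerged plants at the 1- to 4-leaf stage (2–18 cm), or freshly planted seeds, received test chemicals in a non-phytotoxic solvent mixture with surfactant. Response was visually scored against controls after 12 to 14 days in the greenhouse, on a 0 (no effect) to 100 (complete control) scale.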

A further assay deals with broadleaf signalgrass. The experiment in a line: Test E pre-/postemergence herbicide test. It is filed as in vivo, Brachiaria platyphylla.
Source text: as §1, §2

Assay [1] deals with Italian ryegrass. Description: Test E pre-/postemergence herbicide test. Format: in vivo, Lolium multiflorum.
Source text: as §1, §2

In the next assay the test system is southern sandbur. The experiment in a line: Test E pre-/postemergence herbicide test. It is filed as in vivo, Cenchrus echinatus.
Source text: as §1, §2

Another assay concerns morningglory. Description: Test A pre-/postemergence herbicide test. It is filed as in vivo, Ipomoea spp. The method in brief:
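Both application timings were run together: directed soil spray over freshly planted seeds in sandy loam, and runoff spray onto 2–10 cm seedlings. Evaluation after ~10 days in greenhouse used a 0–100 visual scale versus untreated controls.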

Assay [2] deals with Italian ryegrass. The experiment in a line: Test C postemergence herbicide test. Format: in vivo, Lolium multiflorum. The method in brief: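 After a postemergence application at 1 to 4 leaves (plants 2–18 cm high), or at 2 leaves for barnyardgrass in flooded paddy, plants stayed in the greenhouse for 12 to 14 days. Damage was then judged visually relative to control plants, with 100 indicating complete control.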

Where [3] appears, read: Postemergence, 500 g ai/ha, scale 0 to 100.
[4] abbreviates: Postemergence, 250 g ai/ha, scale 0 to 100.
[5] abbreviates: Preemergence, 62 g ai/ha, scale 0 to 100.
[6] abbreviates: Preemergence, 125 g ai/ha, scale 0 to 100.
The mark [7] stands for this setting: Preemergence, 250 g ai/ha, scale 0 (no effect) to 100 (complete control).
The mark [8] stands for this setting: Preemergence, 500 g ai/ha, scale 0 (no effect) to 100 (complete control).
The mark [9] stands for this setting: postemergence, 125 g ai/ha, scale 0 to 100.
Where [10] appears, read: postemergence, 62 g ai/ha, scale 0 to 100.
Where [11] appears, read: 500 g ai/ha, scale 0 to 100, 0 no effect, 100 complete control.
Setting [12] is: Postemergence, 500 g ai/ha, 0 to 100 scale, 0 no effect, 100 complete control.
Where [13] appears, read: Postemergence, 2000 g ai/ha, 0 to 100 scale, 0 no effect, 100 complete control.
[14] abbreviates: Preemergence, 2000 g ai/ha, visual rating, 0 to 100 scale (0 no effect, 100 complete control).
[15] abbreviates: Postemergence, 250 g ai/ha, scale 0 to 100, 0 no effect, 100 complete control.
Where [16] appears, read: Postemergence, 500 g ai/ha, scale 0 to 100, 0 no effect, 100 complete control.
The mark [17] stands for this setting: Preemergence, 500 g ai/ha, visual rating, 0 to 100 scale (0 no effect, 100 complete control).
[18] abbreviates: 125 g ai/ha, scale 0 (no effect) to 100 (complete control), visual, 12 to 14 days, preemergence.
Setting [19] is: 62 g ai/ha, preemergence, scale 0 to 100.
The mark [20] stands for this setting: 250 g ai/ha, scale 0-100, preemergence.
The mark [21] stands for this setting: 500 g ai/ha, scale 0 to 100 (0 no effect, 100 complete control), visual, 12 to 14 days, preemergence.

Take `CCn1nc(C(C)(C)C)cc1C(=O)Nc1cc(C(=O)N(C)C)ccn1` [Compound 156, 2-[[[3-(1,1-dimethylethyl)-1-ethyl-1H-pyrazol-5-yl]carbonyl]amino]-N,N-dimethyl-4-pyridinecarboxamide]: the “Plant response rating, Johnsongrass” value in the assay on johnsongrass (setting [3]) was determined as 100; in the assay on johnsongrass (setting [4]), 100; with johnsongrass (setting [5]), 95; in the assay on johnsongrass (setting [6]), 100; in the assay with johnsongrass (setting [7]), 100; in the assay on johnsongrass (setting [8]), 100. Moreover, the “Plant response rating, Johnsongrass” value in the assay on johnsongrass (setting [9]) is reported as 95; in the assay on johnsongrass (setting [10]), 85. Further, the pest or weed control at 62 g/ha in the assay with kochia (Bassia scoparia, pre-emergence, 62 g ai/ha, preemergence, scale 0 to 100, read-out: Plant response rating, Kochia) was 95%. The pest or weed control at 125 g/ha with kochia (Bassia scoparia, pre-emergence, 125 g ai/ha, scale 0 (no effect) to 100 (complete control), visual, 12 to 14 days, read-out: Plant response rating, Kochia) is 95%. The “Kochia plant response rating” value with kochia (setting [11]) is 100. Also, the “Plant response rating, Signalgrass” value worked out at 98 with broadleaf signalgrass (setting [3]); 95 with broadleaf signalgrass (setting [4]); 85 in the assay with broadleaf signalgrass (setting [5]); 90 in the assay with broadleaf signalgrass (setting [7]); 95 in the assay on broadleaf signalgrass (setting [8]); 85 in the assay on broadleaf signalgrass (setting [9]). Also, the “Plant response rating, Signalgrass” value in the assay with broadleaf signalgrass (setting [10]) is 40. The “Plant response rating, Ryegrass, Italian” value in the assay with Italian ryegrass [1] (setting [3]) is recorded as 98; in the assay with Italian ryegrass [1] (setting [4]), 98; in the assay on Italian ryegrass [1] (setting [5]), 60; in the assay with Italian ryegrass [1] (setting [6]), 95; with Italian ryegrass [1] (setting [7]), 100; with Italian ryegrass [1] (setting [8]) it was 100. Moreover, the “Plant response rating, Ryegrass, Italian” value with Italian ryegrass [1] (setting [9]) amounted to 95; in the assay with Italian ryegrass [1] (setting [10]), 90. In addition, the “Plant response rating, Sandbur” value in the assay on southern sandbur (setting [3]) came to 98; in the assay on southern sandbur (setting [4]), 80; in the assay with southern sandbur (setting [5]), 50; in the assay with southern sandbur (setting [6]), 60; in the assay on southern sandbur (setting [7]), 75; with southern sandbur (setting [8]), 80. The “Plant response rating, Sandbur” value was found to be 75 in the assay on southern sandbur (setting [9]) and 0 with southern sandbur (setting [10]).
For the molecule `CCn1nc(C(C)(C)C)cc1C(=O)Nc1cc(OC(F)(F)F)ccc1F` [Compound 338], the “Morningglory plant response rating” value is recorded as 25 with morningglory (setting [12]); 40 with morningglory (setting [14]); 10 with morningglory (preemergence, 500 g ai/ha, visual injury, 0 to 100 scale (0 no effect, 100 complete control)). In addition, the “Plant response rating, Morningglory” value in the assay on morningglory (setting [13]) was 70. For the same molecule, the “Plant response rating, Kochia” value is given as 90 in the assay on kochia (setting [15]), 90 with kochia (setting [16]), 60 with kochia (setting [9]) and 50 in the assay on kochia (setting [10]). The “Plant response rating, Ryegrass, Italian” value in the assay on Italian ryegrass [2] (setting [15]) was determined as 50; with Italian ryegrass [2] (setting [16]), 60; in the assay on Italian ryegrass [2] (setting [9]) it was 30; in the assay with Italian ryegrass [2] (setting [10]), 25.
With `CCn1nc(C(C)(C)C)cc1C(=O)Nc1cccc(C(=O)NCC2CC2)c1` [Compound 62], the entries for the “Plant response rating, Morningglory” value with morningglory (setting [12]) and in the assay on morningglory (setting [13]) were 10 and 20, respectively. In addition, the “Morningglory plant response rating” value was found to be 20 with morningglory (setting [17]) and 75 with morningglory (Preemergence, 2000 g ai/ha, 0 to 100 scale, 0 no effect, 100 complete control). The “Plant response rating, Kochia” value with kochia (31 g ai/ha, preemergence, scale 0 to 100) worked out at 100; in the assay with kochia (setting [18]), 100; in the assay on kochia (250 g ai/ha, scale 0 to 100 (0 no effect, 100 complete control), visual, 12 to 14 days, preemergence), 100. The “Plant response rating (0 = no effect, 100 = complete control), Kochia” value in the assay on kochia (62 g ai/ha, preemergence) is 100. The entries for the “Plant response rating, Ryegrass, Italian” value with Italian ryegrass [2] (setting [15]), in the assay with Italian ryegrass [2] (setting [9]) and in the assay on Italian ryegrass [2] (setting [10]) were 40, 20 and 20, respectively.
On to `CCc1nn(C(C)C)nc1C(=O)Nc1cccc(C(=O)N(C)CC)c1` [Compound 386], for which the “Plant response rating, Johnsongrass” value came out at 75 in the assay with johnsongrass (setting [6]) and 80 in the assay with johnsongrass (setting [7]). For the same molecule, the figures for the “Plant response rating, Kochia” value in the assay on kochia (setting [19]), in the assay with kochia (setting [20]) and in the assay with kochia (setting [21]) were 30, 100 and 100, respectively. In the assay on kochia (125 g ai/ha, preemergence), the “Plant response rating (0 = no effect, 100 = complete control), Kochia” value is listed as 100. Moreover, the “Plant response rating, Signalgrass” value was determined as 30 with broadleaf signalgrass (setting [6]) and 85 in the assay on broadleaf signalgrass (setting [7]). Moreover, the “Plant response rating, Ryegrass, Italian” value in the assay with Italian ryegrass [1] (setting [6]) is 60; in the assay on Italian ryegrass [1] (setting [7]), 95. Further, the “Plant response rating, Sandbur” value in the assay with southern sandbur (setting [6]) and in the assay with southern sandbur (setting [7]) was 40 in each case.
As for `CCCCOc1cccc(NC(=O)c2cc(C(C)(C)C)nn2CC)c1` [Compound 137], the “Morningglory plant response rating” value came to 25 in the assay on morningglory (setting [12]), 20 in the assay on morningglory (setting [17]) and 35 in the assay with morningglory (setting [14]). In the assay with morningglory (setting [13]), the “Plant response rating, Morningglory” value was 40. Also, in the assay with kochia (62 g ai/ha, preemergence), the “Plant response rating (0 = no effect, 100 = complete control), Kochia” value was determined as 80. In addition, in the assay on kochia (setting [18]), the “Plant response rating, Kochia” value came out at 90. Also, in the assay with kochia (setting [11]), the “Kochia plant response rating” value is recorded as 100. Besides, in the assay with Italian ryegrass [2] (setting [3]), the “Ryegrass, Italian plant response rating” value worked out at 60. The “Plant response rating, Ryegrass, Italian” value in the assay on Italian ryegrass [2] (setting [15]) is given as 40; with Italian ryegrass [2] (setting [9]) it was 40; with Italian ryegrass [2] (setting [10]), 20.
Take `CCn1nc(C2(C)CC2)cc1C(=O)Nc1cc(C(=O)N2CC=CC2)ccc1F` [Compound 301]: the “Plant response rating, Kochia” value with kochia (setting [19]), in the assay with kochia (setting [18]), with kochia (setting [20]) and in the assay on kochia (setting [21]) was 100 each time. The “Ryegrass, Italian plant response rating” value in the assay with Italian ryegrass [2] (setting [3]) came out at 65. Also, the “Plant response rating, Ryegrass, Italian” value with Italian ryegrass [2] (setting [15]) is 45; in the assay on Italian ryegrass [2] (setting [9]), 45; in the assay on Italian ryegrass [2] (setting [10]), 35.
